Experimental data published in PubChem BioAssay AID2060905 (Molecular Pharmacology Branch, DTP, NCI, 2025).
pIC50: −log10 of the molar value. Values belong to the compound of their own block, whether it stands above or below them.

Test system: 282377-053-R-J1-PDC complex spheroid viability
Experiment: Anticancer human tumor 282377-053-R-J1-PDC patient-derived colon adenocarcinoma cell line growth inhibition [RAS]
Conditions: for pIC50: curve of first compound; for viability, T/C: stronger effect = lower value
Summary of the method: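 Multi-cell-type spheroids: tumor cells plus HUVEC endothelial cells and mesenchymal stem cells. RAS-pathway inhibitors were combined with targeted agents, each dosed in half-log steps down from clinical Cmax, or from 10 microM when Cmax was unknown.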

[1] = second compound 0.000949 µM, first compound 0.0316 µM
[2] = second compound 0.000949 µM, first compound 0.1 µM
[3] = second compound 0.000949 µM, first compound 0.316 µM
[4] = second compound 0.000949 µM, first compound 1 µM
[5] = second compound 0.003 µM, first compound 0.0316 µM
[6] = second compound 0.003 µM, first compound 0.1 µM
[7] = second compound 0.003 µM, first compound 0.316 µM
[8] = second compound 0.003 µM, first compound 1 µM
[9] = second compound 0.00949 µM, first compound 0.0316 µM
[10] = second compound 0.00949 µM, first compound 0.1 µM
[11] = second compound 0.00949 µM, first compound 0.316 µM
[12] = second compound 0.00949 µM, first compound 1 µM
[13] = second compound 0.03 µM, first compound 0.0316 µM
[14] = second compound 0.03 µM, first compound 0.1 µM
[15] = second compound 0.03 µM, first compound 0.316 µM
[16] = second compound 0.03 µM, first compound 1 µM
[17] = second compound 0.0949 µM, first compound 0.0316 µM
[18] = second compound 0.0949 µM, first compound 0.1 µM
[19] = second compound 0.0949 µM, first compound 0.316 µM
[20] = second compound 0.0949 µM, first compound 1 µM
[21] = second compound 0.3 µM, first compound 0.0316 µM
[22] = second compound 0.3 µM, first compound 0.1 µM
[23] = second compound 0.3 µM, first compound 0.316 µM
[24] = second compound 0.3 µM, first compound 1 µM
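Further: spheroids exposed to agents for seven days before readout.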
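Wherever viability, T/C is given: luminescence viability as percent of DMSO vehicle control wells.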

pIC50 (second compound 0.000949 µM): < 5.00
pIC50 (second compound 0.003 µM): < 5.00
pIC50 (second compound 0.00949 µM): < 5.00
pIC50 (second compound 0.03 µM): < 5.00
pIC50 (second compound 0.0949 µM): < 5.00
pIC50 (second compound 0.3 µM): < 5.00
Compound: NC1c2ccccc2OC12CCN(c1cnc3c(N4CCCc5ncccc54)n[nH]c3n1)CC2 (centres undefined) + CCn1c(-c2cccnc2C(C)OC)c2c3cc(ccc31)N1CCOC(CC(NC(=O)C(C(C)C)N(C)C(=O)C3(F)CCN(C(=O)C#CC(C)(C)N(C)C)CC3)C(=O)N3CCCC(N3)C(=O)OCC(C)(C)C2)C1
viability, T/C [1]: 103%
viability, T/C [2]: 104%
viability, T/C [3]: 99.5%
viability, T/C [4]: 101%
viability, T/C (second compound 0.000949 µM, first compound 3.16 µM): 110%
viability, T/C (second compound 0.000949 µM, first compound 10 µM): 125%
viability, T/C [5]: 101%
viability, T/C [6]: 100%
viability, T/C [7]: 94.7%
viability, T/C [8]: 100%
viability, T/C (second compound 0.003 µM, first compound 3.16 µM): 104%
viability, T/C (second compound 0.003 µM, first compound 10 µM): 103%
viability, T/C [9]: 96.5%
viability, T/C [10]: 104%
viability, T/C [11]: 97.9%
viability, T/C [12]: 114%
viability, T/C (second compound 0.00949 µM, first compound 3.16 µM): 98.4%
viability, T/C (second compound 0.00949 µM, first compound 10 µM): 71.9%
viability, T/C [13]: 91.9%
viability, T/C [14]: 101%
viability, T/C [15]: 116%
viability, T/C [16]: 94.8%
viability, T/C (second compound 0.03 µM, first compound 3.16 µM): 86%
viability, T/C (second compound 0.03 µM, first compound 10 µM): 110%
viability, T/C [17]: 91.6%
viability, T/C [18]: 123%
viability, T/C [19]: 104%
viability, T/C [20]: 97.9%
viability, T/C (second compound 0.0949 µM, first compound 3.16 µM): 99%
viability, T/C (second compound 0.0949 µM, first compound 10 µM): 118%
viability, T/C [21]: 92.6%
viability, T/C [22]: 88.4%
viability, T/C [23]: 95.5%
viability, T/C [24]: 96.8%
viability, T/C (second compound 0.3 µM, first compound 3.16 µM): 125%
viability, T/C (second compound 0.3 µM, first compound 10 µM): 141%

pIC50 (second compound 0.000949 µM): < 6.00
pIC50 (second compound 0.003 µM): < 6.00
pIC50 (second compound 0.00949 µM): < 6.00
pIC50 (second compound 0.03 µM): < 6.00
pIC50 (second compound 0.0949 µM): < 6.00
pIC50 (second compound 0.3 µM): < 6.00
Compound: Nc1ccn(C2OC(CO)C(O)C2(F)F)c(=O)n1 (centres undefined) + CCn1c(-c2cccnc2C(C)OC)c2c3cc(ccc31)N1CCOC(CC(NC(=O)C(C(C)C)N(C)C(=O)C3(F)CCN(C(=O)C#CC(C)(C)N(C)C)CC3)C(=O)N3CCCC(N3)C(=O)OCC(C)(C)C2)C1
viability, T/C (second compound 0.000949 µM, first compound 0.00316 µM): 99.3%
viability, T/C (second compound 0.000949 µM, first compound 0.01 µM): 105%
viability, T/C [1]: 76%
viability, T/C [2]: 92.6%
viability, T/C [3]: 67.2%
viability, T/C [4]: 57.9%
viability, T/C (second compound 0.003 µM, first compound 0.00316 µM): 100%
viability, T/C (second compound 0.003 µM, first compound 0.01 µM): 97.9%
viability, T/C [5]: 99.2%
viability, T/C [6]: 109%
viability, T/C [7]: 81.1%
viability, T/C [8]: 59%
viability, T/C (second compound 0.00949 µM, first compound 0.00316 µM): 106%
viability, T/C (second compound 0.00949 µM, first compound 0.01 µM): 97.9%
viability, T/C [9]: 99.3%
viability, T/C [10]: 96.8%
viability, T/C [11]: 87.2%
viability, T/C [12]: 66.1%
viability, T/C (second compound 0.03 µM, first compound 0.00316 µM): 104%
viability, T/C (second compound 0.03 µM, first compound 0.01 µM): 87.7%
viability, T/C [13]: 112%
viability, T/C [14]: 104%
viability, T/C [15]: 103%
viability, T/C [16]: 74.1%
viability, T/C (second compound 0.0949 µM, first compound 0.00316 µM): 87%
viability, T/C (second compound 0.0949 µM, first compound 0.01 µM): 98.8%
viability, T/C [17]: 92.1%
viability, T/C [18]: 74.3%
viability, T/C [19]: 91.1%
viability, T/C [20]: 68.5%
viability, T/C (second compound 0.3 µM, first compound 0.00316 µM): 111%
viability, T/C (second compound 0.3 µM, first compound 0.01 µM): 99.9%
viability, T/C [21]: 92.8%
viability, T/C [22]: 116%
viability, T/C [23]: 90.9%
viability, T/C [24]: 52.9%
